target: T1, recombinant human baculovirus-expressed GST-tagged FASN (Homo sapiens, UniProt P49327); experiment: FASN enzyme activity assay: fluorescence-based detection of CoA with CPM; assay type: biochemical; conditions: 5 nM FASN, 150 μM NADPH, 10 μM acetyl-CoA, 25 μM malonyl-CoA, 90 minutes incubation
T1 construct: GST; host or cells: baculovirus expression system (insect cells implied)
Outline: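 IC50 values were fitted (variable-slope sigmoid) to percent inhibition from CPM fluorescence (390/530 nm) reporting free CoA after a 30 min labelling step. The reaction ran 90 min after malonyl-CoA (25 μM) addition, with 10 μM acetyl-CoA, 150 μM NADPH, 5 nM recombinant GST-FASN, 50 mM HEPES pH 7.5 and 0.5% DMSO.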

T1 sequence (P49327 whole entry): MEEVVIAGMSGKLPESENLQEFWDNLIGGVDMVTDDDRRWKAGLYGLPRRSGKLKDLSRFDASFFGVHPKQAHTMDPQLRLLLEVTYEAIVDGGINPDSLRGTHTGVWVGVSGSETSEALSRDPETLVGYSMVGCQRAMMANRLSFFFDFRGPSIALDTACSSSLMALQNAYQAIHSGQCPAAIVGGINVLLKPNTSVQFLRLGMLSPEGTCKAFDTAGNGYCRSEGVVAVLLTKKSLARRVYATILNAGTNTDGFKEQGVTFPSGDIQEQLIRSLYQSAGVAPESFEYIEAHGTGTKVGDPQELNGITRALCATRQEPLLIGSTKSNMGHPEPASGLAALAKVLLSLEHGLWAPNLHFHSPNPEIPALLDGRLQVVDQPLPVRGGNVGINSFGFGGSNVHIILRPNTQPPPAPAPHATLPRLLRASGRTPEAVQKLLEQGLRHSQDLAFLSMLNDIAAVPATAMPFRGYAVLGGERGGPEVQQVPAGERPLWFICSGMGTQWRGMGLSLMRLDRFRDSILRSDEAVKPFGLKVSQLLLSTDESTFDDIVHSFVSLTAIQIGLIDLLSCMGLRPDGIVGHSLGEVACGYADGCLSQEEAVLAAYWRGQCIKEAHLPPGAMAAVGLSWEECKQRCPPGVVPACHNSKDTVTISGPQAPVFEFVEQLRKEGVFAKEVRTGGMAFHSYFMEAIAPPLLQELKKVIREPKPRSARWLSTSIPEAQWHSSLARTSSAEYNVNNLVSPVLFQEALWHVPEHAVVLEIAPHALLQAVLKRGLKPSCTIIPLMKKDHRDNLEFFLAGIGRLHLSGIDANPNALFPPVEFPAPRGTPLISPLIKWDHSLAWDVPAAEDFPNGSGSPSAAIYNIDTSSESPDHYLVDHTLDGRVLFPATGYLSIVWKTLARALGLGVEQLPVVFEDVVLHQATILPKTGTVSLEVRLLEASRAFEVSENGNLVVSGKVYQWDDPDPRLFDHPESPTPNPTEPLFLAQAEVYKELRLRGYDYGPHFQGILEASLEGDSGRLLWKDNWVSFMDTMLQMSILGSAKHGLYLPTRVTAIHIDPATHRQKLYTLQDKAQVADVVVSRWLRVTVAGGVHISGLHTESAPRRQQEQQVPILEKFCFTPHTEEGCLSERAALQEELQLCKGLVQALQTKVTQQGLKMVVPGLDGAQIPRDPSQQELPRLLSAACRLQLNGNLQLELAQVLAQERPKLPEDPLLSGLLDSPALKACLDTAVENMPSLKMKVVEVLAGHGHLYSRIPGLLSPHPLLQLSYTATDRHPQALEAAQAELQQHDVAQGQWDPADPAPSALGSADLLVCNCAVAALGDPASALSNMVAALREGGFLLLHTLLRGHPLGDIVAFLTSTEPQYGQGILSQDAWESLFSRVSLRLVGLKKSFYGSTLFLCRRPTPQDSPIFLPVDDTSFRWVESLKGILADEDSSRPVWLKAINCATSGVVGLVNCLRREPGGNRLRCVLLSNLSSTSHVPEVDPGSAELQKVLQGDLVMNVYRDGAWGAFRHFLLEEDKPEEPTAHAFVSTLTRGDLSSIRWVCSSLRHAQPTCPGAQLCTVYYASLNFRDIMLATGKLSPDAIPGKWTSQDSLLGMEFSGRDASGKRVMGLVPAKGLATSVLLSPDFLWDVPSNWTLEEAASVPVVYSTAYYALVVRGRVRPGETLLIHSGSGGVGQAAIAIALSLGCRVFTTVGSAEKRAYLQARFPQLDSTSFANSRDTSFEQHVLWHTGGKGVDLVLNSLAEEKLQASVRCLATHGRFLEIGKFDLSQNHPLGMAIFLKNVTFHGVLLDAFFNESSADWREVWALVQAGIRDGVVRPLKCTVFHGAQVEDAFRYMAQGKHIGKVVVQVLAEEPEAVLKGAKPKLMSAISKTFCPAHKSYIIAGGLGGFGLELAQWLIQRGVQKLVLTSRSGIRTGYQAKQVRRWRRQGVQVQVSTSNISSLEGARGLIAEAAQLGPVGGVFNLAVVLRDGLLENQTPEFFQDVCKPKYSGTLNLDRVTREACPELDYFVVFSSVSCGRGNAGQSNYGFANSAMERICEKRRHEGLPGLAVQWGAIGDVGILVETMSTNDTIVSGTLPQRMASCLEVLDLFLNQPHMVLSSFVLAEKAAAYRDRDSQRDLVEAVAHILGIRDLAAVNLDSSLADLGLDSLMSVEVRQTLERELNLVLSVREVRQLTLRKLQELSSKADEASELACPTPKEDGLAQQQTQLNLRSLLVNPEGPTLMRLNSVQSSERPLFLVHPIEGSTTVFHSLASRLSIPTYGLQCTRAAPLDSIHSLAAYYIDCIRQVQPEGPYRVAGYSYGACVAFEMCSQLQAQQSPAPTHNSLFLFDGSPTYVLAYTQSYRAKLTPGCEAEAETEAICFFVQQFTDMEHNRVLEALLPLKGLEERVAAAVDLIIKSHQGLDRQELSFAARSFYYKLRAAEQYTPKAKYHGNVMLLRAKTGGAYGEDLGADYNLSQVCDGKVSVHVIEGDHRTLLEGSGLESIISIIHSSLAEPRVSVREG

Row | Compound | IC50
1 | CCC(=O)N1CCC(C(C)(O)c2ccc(-c3ccc4cnccc4c3)cc2)CC1 (stereo not drawn) [Example 131, 1-{4-[1-Hydroxy-1-(4-isoquinolin-6-yl-phenyl)-ethyl]-piperidin-1-yl}-propan-1-one] | 100 to 999 nM
2 | CCC(=O)N1CCC(C2(c3ccc(-c4ccc5cccnc5c4)cc3)OCCO2)CC1 [Example 114, 1-{4-[2-(4-Quinolin-7-yl-phenyl)-1,3-dioxolan-2-yl]-piperidin-1-yl}-propan-1-one] | 100 to 999 nM
3 | CCC(=O)N1CCC(Cc2ccc(-c3cnc4ccccc4c3)cc2)C(=O)C1 (stereo not drawn) [Example 220, 1-Propionyl-4-(4-quinolin-3-yl-benzyl)-piperidin-3-one] | 100 to 999 nM
4 | CCOC(C)(c1ccc(-c2ccc3cccnc3c2)cc1)C1CCN(C(=O)CC)CC1 (stereo not drawn) [Example 214, 1-{4-[1-Ethoxy-1-(4-quinolin-7-yl-phenyl)-ethyl]-piperidin-1-yl}-propan-1-one] | 100 to 999 nM
5 | CCOC(C)(c1ccc(-c2cnc3ccccc3c2)cc1)C1CCN(C(=O)C2CC2)CC1 (stereo not drawn) [Example 207, Cyclopropyl-{4-[1-ethoxy-1-(4-quinolin-3-yl-phenyl)-ethyl]-piperidin-1-yl}-methanone] | 100 to 999 nM
6 | CCC(=O)N1CCC(C(F)(F)c2ccc(-c3cnc4ccccc4c3)cc2)CC1 [Example 16, 1-{4-[Difluoro-(4-quinolin-3-yl-phenyl)-methyl]-piperidin-1-yl}-propan-1-one] | 100 to 999 nM
7 | O=C(C1CC(F)(F)C1)N1CCC(Cc2ccc(-c3cnc4ccccc4c3Cl)cc2)CC1 [Example 21, {4-[4-(4-Chloroquinolin-3-yl)-benzyl]-piperidin-1-yl}-(3,3-difluorocyclobutyl)-methanone] | 1000 to 10000 nM
8 | CCC(=O)N1CCC(C2(c3ccc(-c4ccc5ccncc5c4)cc3)OCCO2)CC1 [Example 116, 1-{4-[2-(4-Isoquinolin-7-yl-phenyl)-1,3-dioxolan-2-yl]-piperidin-1-yl}-propan-1-one] | 1000 to 10000 nM
9 | CCC(=O)N1CCC(C(=O)c2ccc(-c3ccc4cccnc4c3)cc2F)CC1 [Example 142, 1-[4-(2-Fluoro-4-quinolin-7-yl-benzoyl)-piperidin-1-yl]-propan-1-one] | 100 to 999 nM
10 | O=C(C1CC1)N1CCC(Cc2ccc(-c3cc4ccccc4cn3)cc2)CC1 [Example 27, Cyclopropyl-[4-(4-isoquinolin-3-yl-benzyl)-piperidin-1-yl]-methanone] | 1000 to 10000 nM
11 | O=C(C1CC1)N1CCC(C2(c3ccc(-c4ccc5cccnc5c4)cc3)OCCCO2)CC1 [Example 122, Cyclopropyl-{4-[2-(4-quinolin-7-yl-phenyl)-1,3-dioxinan-2-yl]-piperidin-1-yl}-methanone] | 1000 to 10000 nM
12 | CCOC(C)(c1ccc(-c2ccc3cccnc3c2)cc1)C1CCN(C(=O)C2CC2)CC1 (stereo not drawn) [Example 215, Cyclopropyl-{4-[1-ethoxy-1-(4-quinolin-7-yl-phenyl)-ethyl]-piperidin-1-yl}-methanone] | 100 to 999 nM
13 | CCC(=O)N1CCC(C(C)(O)c2ccc(-c3ccc4cccnc4c3)cc2)CC1 (stereo not drawn) [Example 126, 1-{4-[1-Hydroxy-1-(4-quinolin-7-yl-phenyl)-ethyl]-piperidin-1-yl}-propan-1-one] | 100 to 999 nM
14 | Cc1c(-c2ccc(C3(C4CCN(C(=O)[C@H]5CCCO5)CC4)CC3)cc2)ccc2cccnc12 [Example 79, (4-{1-[4-(8-Methylquinolin-7-yl)-phenyl]-cyclopropyl}-piperidin-1-yl)-(R)-tetrahydrofuran-2-yl-methanone] | 1000 to 10000 nM
15 | CCC(=O)N1CCC(C(=O)c2ccc(-c3ccc4cnccc4c3)cc2)CC1 [Example 129, 1-[4-(4-Isoquinolin-6-yl-benzoyl)-piperidin-1-yl]-propan-1-one] | 1000 to 10000 nM
16 | O=C(C1CC1)N1CC=C(Cc2ccc(-c3cnc4ccccc4c3Cl)cc2)CC1 [Example 198, (4-(4-(4-Chloroquinolin-3-yl)benzyl)-3,6-dihydropyridin-1(2H)-yl)(cyclopropyl)methanone] | 100 to 999 nM
17 | Cc1c(-c2ccc(CC3=CCN(C(=O)C4CC4)CC3)cc2)ccc2cccnc12 [Example 184, Cyclopropyl(4-(4-(8-methylquinolin-7-yl)benzyl)-3,6-dihydropyridin-1(2H)-yl)methanone] | 100 to 999 nM
18 | CCC(=O)N1CCC(C(NC=O)c2ccc(-c3cnc4ccccc4c3)cc2)CC1 (stereo not drawn) [Example 55, N-[(1-Propionylpiperidin-4-yl)-(4-quinolin-3-yl-phenyl)-methyl]-formamide] | 1000 to 10000 nM
19 | CCC(=O)N1CCC(C(C)(OC)c2ccc(-c3cnc4ccccc4c3)cc2)CC1 (stereo not drawn) [Example 208, 1-{4-[1-Methoxy-1-(4-quinolin-3-yl-phenyl)-ethyl]-piperidin-1-yl}-propan-1-one] | 100 to 999 nM
20 | Cc1c(-c2ccc(C(F)(F)C3CCN(C(=O)C4CC4)CC3)cc2)cnc2ccccc12 [Example 10, Cyclopropyl-(4-{difluoro-[4-(4-methyl-quinolin-3-yl)-phenyl]-methyl}-piperidin-1-yl)-methanone] | 100 to 999 nM
21 | CN(C)Cc1ccc(-c2ccc(C3(C4CCN(C(=O)C5CC5)CC4)OCCO3)cc2)cc1 [Example 137, Cyclopropyl-{4-[2-(4′-dimethylaminomethyl-biphenyl-4-yl)-1,3-dioxolan-2-yl]-piperidin-1-yl}-methanone] | 1000 to 10000 nM
22 | CCC(=O)N1CC[C@@H](Cc2ccc(-c3cnc4ccccc4c3)cc2)[C@H](O)C1 (relative stereo) [Example 218, 1-[trans-3-Hydroxy-4-(4-quinolin-3-yl-benzyl)-piperidin-1-yl]-propan-1-one] | 100 to 999 nM

The remaining lines, values ahead:

Row | IC50 | Compound
23 | 1 to 99 nM | CCC(=O)N1CCC(C(=O)c2ccc(-c3ccc4cnccc4c3)cc2F)CC1 [Example 127, 1-[4-(2-Fluoro-4-isoquinolin-6-yl-benzoyl)-piperidin-1-yl]-propan-1-one]
24 | 1 to 99 nM | CCC(=O)N1CCC(Cc2ccc(-c3ccc4cccnc4c3OC)cc2)CC1 [Example 32, 1-{4-[4-(8-Methoxyquinolin-7-yl)-benzyl]-piperidin-1-yl}-propan-1-one]
25 | 1 to 99 nM | CCC(=O)N1CCC(F)(Cc2ccc(-c3ccc4cnccc4c3)cc2)CC1 [Example 165, 1-(4-fluoro-4-(4-(isoquinolin-6-yl)benzyl)piperidin-1-yl)propan-1-one]
26 | 1 to 99 nM | CCC(=O)N1CCC(C(OCCOC)c2ccc(-c3ccc4cccnc4c3C)cc2)CC1 (stereo not drawn) [Example 81, 1-(4-{(2-Methoxyethoxy)-[4-(8-methyl-quinolin-7-yl)-phenyl]-methyl}-piperidin-1-yl)-propan-1-one]
27 | 1 to 99 nM | CCC(=O)N1CC[C@@H](Cc2ccc(-c3cnc4ccccc4c3)cc2)[C@@H](F)C1 (relative stereo) [Example 221, 1-[cis-3-Fluoro-4-(4-quinolin-3-yl-benzyl)-piperidin-1-yl]-propan-1-one]
28 | 1 to 99 nM | O=C([C@H]1CCCO1)N1CCC(C(F)c2ccc(-c3cnc4ccccc4c3)cc2)CC1 (stereo partly drawn) [Example 8, {4-[Fluoro-(4-quinolin-3-yl-phenyl)-methyl]-piperidin-1-yl}-(R)-tetrahydro-furan-2-yl-methanone]
29 | 1 to 99 nM | CCC(=O)N1CCC(F)(Cc2ccc(-c3cncc4ccccc34)cc2)CC1 [Example 167, 1-(4-fluoro-4-(4-(isoquinolin-4-yl)benzyl)piperidin-1-yl)propan-1-one]
30 | 1 to 99 nM | CCC(=O)N1CCC(C(C)(O)c2ccc(-c3ccc4cnccc4c3)cc2F)CC1 (stereo not drawn) [Example 132, 1-{4-[1-(2-Fluoro-4-isoquinolin-6-yl-phenyl)-1-hydroxy-ethyl]-piperidin-1-yl}-propan-1-one]
31 | 1 to 99 nM | CCC(=O)N1CCC(F)(Cc2ccc(-c3ccc4cccnc4c3)cc2)CC1 [Example 163, 1-(4-fluoro-4-(4-(quinolin-7-yl)benzyl)piperidin-1-yl)propan-1-one]
32 | 1 to 99 nM | COCCOC(c1ccc(-c2ccc3c(C)nccc3c2)cc1)C1CCN(C(=O)[C@H]2CCCO2)CC1 (mixture of isomers) [Example 82, (4-{(2-Methoxyethoxy)-[4-(1-methylisoquinolin-6-yl)-phenyl]-methyl}-piperidin-1-yl)-(R)-tetrahydrofuran-2-yl-methanone]
33 | 1 to 99 nM | COc1c(-c2ccc(C(C)C3CCN(C(=O)[C@H]4CCCO4)CC3)cc2)ccc2cccnc12 (mixture of isomers) [Example 69, (4-{1-[4-(8-Methoxyquinolin-7-yl)-phenyl]-ethyl}-piperidin-1-yl)-(R)-tetrahydrofuran-2-yl-methanone]
34 | 1 to 99 nM | Cc1c(-c2ccc(CC3CCN(C(=O)N4CCCC4)CC3)cc2)ccc2cccnc12 [Example 234, [4-[[4-(8-methyl-7-quinolyl)phenyl]methyl]-1-piperidyl]-pyrrolidin-1-yl-methanone]
35 | 1 to 99 nM | COc1c(-c2ccc(C(C)C3CCN(C(=O)C4CC4)CC3)cc2)ccc2cccnc12 (stereo not drawn) [Example 66, Cyclopropyl-(4-{1-[4-(8-methoxyquinolin-7-yl)-phenyl]-ethyl}-piperidin-1-yl)-methanone]
36 | 1 to 99 nM | CC(c1ccc(-c2cnc3ccccc3c2)cc1)C1CCN(C(=O)[C@H]2CCCO2)CC1 (stereo partly drawn) [Example 52, {4-[1-(4-Quinolin-3-yl-phenyl)-ethyl]-piperidin-1-yl}-(R)-tetrahydrofuran-2-yl-methanone]
37 | 1 to 99 nM | COCCOC(c1ccc(-c2ccc3cccnc3c2C)cc1)C1CCN(C(=O)[C@H]2CCCO2)CC1 (stereo partly drawn) [Example 80, (4-{(2-Methoxyethoxy)-[4-(8-methyl-quinolin-7-yl)-phenyl]-methyl}-piperidin-1-yl)-(R)-tetrahydrofuran-2-yl-methanone]
38 | 1 to 99 nM | O=C([C@H]1CCCO1)N1CCC(Cc2ccc(-c3cnc4ccccc4c3)cc2)CC1 [Example 4]
39 | 1 to 99 nM | Cc1c(-c2ccc(CC3CCN(C(=O)C4CC4)CC3)cc2)cnc2ccccc12 [Example 13, Cyclopropyl-{4-[4-(4-methylquinolin-3-yl)-benzyl]-piperidin-1-yl}-methanone]

From patent publication US11878966B2, “Substituted 4-benzyl and 4-benzoyl piperidine derivates” (89BIO LTD, priority 2015, dated 2024)
